Assay results published in patent US9796733B2, “Imidazo-pyrazine derivatives useful as soluble guanylate cyclase activators” (Merck Sharp & Dohme Corp., priority 2014, dated 2017).

Target: T1, sGC α1/β1 heterodimer (Homo sapiens, UniProt Q02108+Q02153)
T1 construct: expressed in transfected cells; host or cells: CHO-K1 (clone #7, CHO-K1/sGC)
T1 sequence (Q02108 1-690): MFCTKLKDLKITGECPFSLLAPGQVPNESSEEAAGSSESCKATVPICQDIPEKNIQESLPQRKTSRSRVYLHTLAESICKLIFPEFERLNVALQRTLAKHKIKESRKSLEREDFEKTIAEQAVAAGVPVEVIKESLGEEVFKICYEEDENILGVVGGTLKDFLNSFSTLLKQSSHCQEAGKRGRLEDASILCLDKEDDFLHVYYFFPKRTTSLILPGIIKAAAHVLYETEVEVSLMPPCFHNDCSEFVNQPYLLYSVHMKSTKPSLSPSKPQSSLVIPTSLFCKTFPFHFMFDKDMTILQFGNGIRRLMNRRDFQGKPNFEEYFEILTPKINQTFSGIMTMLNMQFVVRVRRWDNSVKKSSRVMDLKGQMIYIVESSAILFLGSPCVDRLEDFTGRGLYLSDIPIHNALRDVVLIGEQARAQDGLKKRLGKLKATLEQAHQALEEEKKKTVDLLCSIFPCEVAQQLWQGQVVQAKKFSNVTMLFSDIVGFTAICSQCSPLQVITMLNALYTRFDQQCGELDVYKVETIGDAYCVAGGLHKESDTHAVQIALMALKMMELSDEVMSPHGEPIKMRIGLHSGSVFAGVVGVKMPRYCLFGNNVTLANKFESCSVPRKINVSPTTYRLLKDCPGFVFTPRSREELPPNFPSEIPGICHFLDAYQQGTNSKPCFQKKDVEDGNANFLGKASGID
T1 sequence (Q02153 1-619): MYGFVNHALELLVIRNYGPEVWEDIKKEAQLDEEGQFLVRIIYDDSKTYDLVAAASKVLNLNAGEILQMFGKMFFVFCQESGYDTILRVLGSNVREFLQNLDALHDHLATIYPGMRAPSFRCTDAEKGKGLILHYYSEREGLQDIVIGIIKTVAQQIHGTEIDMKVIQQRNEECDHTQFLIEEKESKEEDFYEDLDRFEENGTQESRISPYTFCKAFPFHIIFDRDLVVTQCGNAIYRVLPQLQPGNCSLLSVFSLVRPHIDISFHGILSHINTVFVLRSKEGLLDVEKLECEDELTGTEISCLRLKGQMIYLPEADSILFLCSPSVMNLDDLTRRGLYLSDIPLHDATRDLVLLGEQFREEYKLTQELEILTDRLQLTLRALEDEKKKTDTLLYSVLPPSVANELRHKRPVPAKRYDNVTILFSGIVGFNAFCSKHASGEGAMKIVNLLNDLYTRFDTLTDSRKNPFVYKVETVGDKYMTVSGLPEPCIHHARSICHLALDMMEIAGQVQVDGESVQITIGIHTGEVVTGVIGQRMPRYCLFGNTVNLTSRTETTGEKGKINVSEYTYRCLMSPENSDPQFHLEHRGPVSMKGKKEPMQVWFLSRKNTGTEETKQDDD
Assay: Cell-based sGC functional assay (CASA assay): cGMP generation in CHO-K1/sGC cells, HTRF detection
Conditions: for Emax: CHO-K1, percent activation relative to standard Compound A in CHO-K1/sGC cells, read-out: % Act.; for EC50: inflection point (IP) of cGMP generation in CHO-K1/sGC cells, 4P fit, activity expressed as percentage of Compound A; for % Act.: percent activation relative to standard Compound A in CHO-K1/sGC cells
Procedure, shortened: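 Stable CHO-K1/sGC cells in EBSS buffer with 5 mM MgCl2, 0.05% BSA and 0.5 mM IBMX were incubated with compound (2.5% DMSO final) ±1 μM DETA-NO for 1 hr at 37° C. cGMP was measured by HTRF. Activation is expressed as % of reference HDA Compound A maximum, with IP and max fold induction from a 4P fit.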

What does the source list for COc1ccc(C2(C)C(=O)Nc3nc(-c4cn5ccnc5c(CCC(F)(F)C(F)(F)F)n4)nc(N)c32)nc1 (centres unmarked) [Example 248B, 4-amino-5-(5-methoxypyridin-2-yl)-5-methyl-2-(8-(3,3,4,4,4-pentafluorobutyl)imidazo [12-a]pyrazin-6-yl)-5H-pyrrolo[2,3-d]pyrimidin-6(7H)-one]?
Emax: 88%; EC50: 82 nM

COc1ccc(C2(C)C(=O)Nc3nc(-c4cn5ccnc5c(CCCC(F)(F)F)n4)nc(N)c32)nc1 (centres unmarked) [Example 212B, 4-amino-5-(5-methoxypyridin-2-yl)-5-methyl-2-(8-(4,4,4-trifluorobutyl)imidazo[1,2-a]pyrazin-6-yl)-5H-pyrrolo[2,3-d]pyrimidin-6(7H)-one] was tested. Which Emax did it give?
Its Emax is 83%.

What about the EC50 of the same compound?
Its EC50 is 87 nM.

With Nc1nc(-c2cn3ccnc3c(CCCC(F)(F)F)n2)nc2c1C(c1ncc(C(F)(F)F)cc1Cl)(C1CC1)C(=O)N2 (single isomer, unassigned) [Example 370B, 4-amino-5-(3-chloro-5-(trifluoromethyl)pyridin-2-yl)-5-cyclopropyl-2-(8-(4,4,4-trifluorobutyl)imidazo[1,2-a]pyrazin-6-yl)-5H-pyrrolo[2,3-d]pyrimidin-6(7H)-one] as the compound, how does the Emax read?
The Emax was 99%.

What about the EC50 of the same compound?
Its EC50 is 262 nM.

CC1(c2ccc(C3CC3)cn2)C(=O)Nc2nc(-c3cn4ccnc4c(CCC(F)(F)C(F)(F)F)n3)nc(N)c21 (centres unmarked) [Example 227B, 4-amino-5-(5-cyclopropylpyridin-2-yl)-5-methyl-2-(8-(3,3,4,4,4-pentafluorobutyl)imidazo [1,2-a]pyrazin-6-yl)-5H-pyrrolo[2,3-d]pyrimidin-6(7H)-one] was tested. Which Emax did it give?
The Emax was 111%.

And the EC50?
The EC50 was 249 nM.

CCCCc1nc(-c2nc(N)c3c(n2)NC(=O)C3(C)c2ccc(F)cn2)cn2c(C)cnc12 (centres unmarked) [Example 165B, 4-amino-2-(8-butyl-3-methylimidazo[1,2-a]pyrazin-6-yl)-5-(5-fluoropyridin-2-yl)-5-methyl-5H-pyrrolo[2,3-d]pyrimidin-6(7H)-one] was tested. Which Emax did it give?
The Emax was 81%.

What about the EC50 of the same compound?
Its EC50 is 43 nM.

Which Emax does the source give for CCCc1nc(-c2nc(N)c3c(n2)NC(=O)C3(c2ccc(C(F)(F)F)cn2)C2CC2)cn2ccnc12 (centres unmarked) [Example 341A, 4-amino-5-cyclopropyl-2-(8-propylimidazo[1,2-a]pyrazin-6-yl)-5-(5-(trifluoromethyl)pyridin-2-yl)-5H-pyrrolo[2,3-d]pyrimidin-6(7H)-one] here?
Its Emax is 106%.

And the EC50?
Its EC50 is 2100 nM.

How did the Emax turn out when CC1(c2ccc(Cl)cc2)C(=O)Nc2nc(-c3cn4ccnc4c(CCC(F)(F)F)n3)nc(N3CCOCC3)c21 (centres unmarked) [Example 297A, 5-(4-chlorophenyl)-5-methyl-4-morpholino-2-(8-(3,3,3-trifluoropropyl)imidazo[1,2-a]pyrazin-6-yl)-5H-pyrrolo[2,3-d]pyrimidin-6(7H)-one] was run?
Its Emax is 101%.

What about the EC50 of the same compound?
Its EC50 is 466 nM.

What does the source list for CCCCc1nc(-c2nc(N)c3c(n2)NC(=O)C3(C)c2ccc(F)cn2)cn2cc(C)nc12 (centres unmarked) [Example 164B, 4-amino-2-(8-butyl-2-methylimidazo[1,2-a]pyrazin-6-yl)-5-(5-fluoropyridin-2-yl)-5-methyl-5H-pyrrolo[2,3-d]pyrimidin-6(7H)-one]?
Emax: 93%; EC50: 81 nM

How did the Emax turn out when CC1(c2ccc(Cl)c(F)c2)C(=O)Nc2nc(-c3cn4ccnc4c(CCCC(F)(F)F)n3)nc(N)c21 (centres unmarked) [Example 204B, 4-amino-5-(4-chloro-3-fluorophenyl)-5-methyl-2-(8-(4,4,4-trifluorobutyl)imidazo[1,2-a]pyrazin-6-yl)-5H-pyrrolo[2,3-d]pyrimidin-6(7H)-one] was run?
The Emax was 110%.

What about the EC50 of the same compound?
The EC50 was 14 nM.

With CC(C)Cc1nc(-c2nc(N)c3c(n2)NC(=O)C3(c2ccc(Cl)cn2)C2CC2)cn2ccnc12 (centres unmarked) [Example 126B, 4-amino-5-(5-chloropyridin-2-yl)-5-cyclopropyl-2-(8-isobutylimidazo[1,2-a]pyrazin-6-yl)-5H-pyrrolo[2,3-d]pyrimidin-6(7H)-one] as the compound, how does the Emax read?
Its Emax is 160%.

What about the EC50 of the same compound?
The EC50 was 242 nM.

For Cn1nnnc1C1(C2CC2)C(=O)Nc2nc(-c3cn4ccnc4c(CCC(F)(F)C(F)(F)F)n3)nc(N)c21 (single isomer, unassigned) [Example 325A, 4-amino-5-cyclopropyl-5-(1-methyl-1H-tetrazol-5-yl)-2-(8-(3,3,4,4,4-pentafluorobutyl)imidazo[1,2-a]pyrazin-6-yl]-5H-pyrrolo[2,3-d]pyrimidin-6(7H)-one], which Emax is on record?
The Emax was 83%.

What about the EC50 of the same compound?
Its EC50 is 1210 nM.

What does the source list for CC1(C)C(=O)Nc2nc(-c3cn4ccnc4c(Cc4cccc(Cl)c4)n3)nc(N)c21 [Example 74, 4-amino-2-(8-(3-chlorobenzyl)imidazo[1,2-a]pyrazin-6-yl)-5,5-dimethyl-5H-pyrrolo[2,3-d]pyrimidin-6(7H)-one]?
Emax: 94%; EC50: 138 nM

How did the Emax turn out when CC1(c2ccc(C(F)(F)F)cn2)C(=O)Nc2nc(-c3cn4ccnc4c(CC4CCC4)n3)nc(N)c21 (centres unmarked) [Example 119B, 4-amino-2-(8-(cyclobutylmethyl)imidazo [1,2-a]pyrazin-6-yl)-5-methyl-5-(5-(trifluoromethyl)pyridin-2-yl)-5H-pyrrolo[2,3-d]pyrimidin-6(7H)-one] was run?
Its Emax is 121%.

And the EC50?
The EC50 was 161 nM.

Which EC50 does the source give for Nc1nc(-c2cn3ccnc3c(Cc3ccccc3)n2)nc2c1C(C(=O)NC1CC1)(C1CC1)C(=O)N2 (single isomer, unassigned) [Example 40A, 4-amino-2-(8-benzylimidazo[1,2-a]pyrazin-6-yl)-N,5-dicyclopropyl-6-oxo-6,7-dihydro-5H-pyrrolo[2,3-d]pyrimidine-5-carboxamide] here?
Its EC50 is 53 nM.

What about the “% Act.” value of the same compound?
The value was 138%.

What does the source list for CCC1(C2CC2)C(=O)Nc2nc(-c3cn4ccnc4c(Cc4ccccc4)n3)nc(N)c21 (single isomer, unassigned) [Example 77A, 4-amino-2-(8-benzylimidazo[1,2-a]pyrazin-6-yl)-5-cyclopropyl-5-ethyl-5H-pyrrolo[2,3-d]pyrimidin-6(7H)-one]?
EC50: 90 nM; % Act.: 151%

How did the Emax turn out when CC1(c2ccc(Cl)cc2)C(=O)Nc2nc(-c3cn4ccnc4cn3)nc(NCC3CC3)c21 (centres unmarked) [Example 283A, 5-(4-chlorophenyl)-4-((cyclopropylmethyl)amino)-2-(imidazo[1,2-a]pyrazin-6-yl)-5-methyl-5H-pyrrolo[2,3-d]pyrimidin-6(7H)-one] was run?
Its Emax is 163%.

What about the EC50 of the same compound?
Its EC50 is 56 nM.

How did the Emax turn out when CC1(c2ccccc2)C(=O)Nc2nc(-c3cn4c(Cl)cnc4c(CCC(F)(F)F)n3)nc(N)c21 (centres unmarked) [Example 259B, 4-amino-2-(3-chloro-8-(3,3,3-trifluoropropyl)imidazo[1,2-a]pyrazin-6-yl)-5-methyl-5-phenyl-5H-pyrrolo[2,3-d]pyrimidin-6(7H)-one] was run?
The Emax was 99%.

What about the EC50 of the same compound?
Its EC50 is 112 nM.

How did the Emax turn out when CC(F)(F)c1ccc(C2(C)C(=O)Nc3nc(-c4cn5ccnc5c(CCC(F)(F)C(F)(F)F)n4)nc(N)c32)cn1 (single isomer, unassigned) [Example 379A, 4-amino-5-(6-(1,1-difluoroethyl)pyridin-3-yl)-5-methyl-2-(8-(3,3,4,4,4-pentafluorobutyl)imidazo[1,2-a]pyrazin-6-yl)-5H-pyrrolo[2,3-d]pyrimidin-6(7H)-one] was run?
The Emax was 87%.

And the EC50?
The EC50 was 152 nM.

What does the source list for CC1(c2ccc(Cl)cn2)C(=O)Nc2nc(-c3cn4ccnc4c(Cc4ccc(F)cc4)n3)nc(N)c21 (centres unmarked) [Example 107A, 4-amino-5-(5-chloropyridin-2-yl)-2-(8-(4-fluorobenzyl)imidazo[1,2-a]pyrazin-6-yl)-5-methyl-5H-pyrrolo[2,3-d]pyrimidin-6(7H)-one]?
Emax: 171%; EC50: 86 nM
